We go through 18 compounds from PubChem BioAssay AID328 (DTP/NCI, 2004).

SMILES strings stand for the structures. Values joined by “and” are separate entries in the source; they are usually repeats but may differ in a detail not shown here. Identical values can stand only once. Toxic doses and inconclusive results are not listed.

The test system of the assay is BDF1 mice, P388 leukemia ip, median survival T/C. Description: NCI In Vivo Anticancer Drug Screen. Data for tumor model P388 Leukemia (intraperitoneal) in B6D2F1 (BDF1) mice. To be noted: endpoint: median survival time, higher = longer survival. The essentials:
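Mice carrying the transplantable tumour receive compound or vehicle. Survival is followed in each arm, and the treated measure is divided by the vehicle measure.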

The mark [1] stands for this setting: dose: 100.0 mg/kg/injection, schedule: Q04DX003 (ip), vehicle: saline with Tween-80.
[2] abbreviates: dose: 100.0 mg/kg/injection, schedule: Q04DX003 (ip), vehicle: saline.
Setting [3] is: dose: 50.0 mg/kg/injection, schedule: Q01DX009 (ip), vehicle: saline with Tween-80.
[4] abbreviates: dose: 100.0 mg/kg/injection, schedule: Q01DX009 (ip), vehicle: saline with Tween-80.
The mark [5] stands for this setting: dose: 100.0 mg/kg/injection, schedule: Q01DX001 (ip), vehicle: Klucel (hydroxypropylcellulose) (HPC).
[6] abbreviates: dose: 200.0 mg/kg/injection, schedule: Q01DX001 (ip), vehicle: Klucel (hydroxypropylcellulose) (HPC).
Where [7] appears, read: dose: 400.0 mg/kg/injection, schedule: Q01DX001 (ip), vehicle: Klucel (hydroxypropylcellulose) (HPC).
The mark [8] stands for this setting: dose: 100.0 mg/kg/injection, schedule: Q01DX009 (ip), vehicle: Klucel (hydroxypropylcellulose) (HPC).
[9] abbreviates: dose: 100.0 mg/kg/injection, schedule: Q04DX003 (ip), vehicle: Klucel (hydroxypropylcellulose) (HPC).

Turning to `CC(C)(O)/C=C/C(=O)C(C)(O)C1C(O)CC2(C)C3CC=C4C(CC(O)C(O)C4(C)C)C3(C)C(=O)CC12C` (configuration not stated), the T/C runs as follows: (dose: 0.25 mg/kg/injection, schedule: Q01DX010 (ip), vehicle: carboxymethylcellulose (CMC)) 100 % of control; (dose: 0.5 mg/kg/injection, schedule: Q01DX010 (ip), vehicle: carboxymethylcellulose (CMC)) 105 % of control; (dose: 1.0 mg/kg/injection, schedule: Q01DX010 (ip), vehicle: carboxymethylcellulose (CMC)) 95 % of control; (dose: 2.0 mg/kg/injection, schedule: Q01DX010 (ip), vehicle: carboxymethylcellulose (CMC)) 110 % of control.
For `CC(C)NC(=O)OCc1c(COC(=O)NC(C)C)c(-c2ccc(Cl)c(Cl)c2)n2c1CCC2`, the T/C runs as follows: (dose: 12.5 mg/kg/injection, schedule: Q01DX009 (ip), vehicle: other) 204 % of control; (dose: 25.0 mg/kg/injection, schedule: Q01DX009 (ip), vehicle: other) 214 % of control.
For the compound `CC(=O)[O][Hg][c]1cc(-c2ccc(N=Nc3c(S(=O)(=O)O)cc4cccc(N)c4c3O)cc2)ccc1N=Nc1c(S(=O)(=O)O)cc2cccc(N)c2c1O`, the T/C runs as follows: (dose: 1.5 mg/kg/injection, schedule: Q01DX009 (ip), vehicle: saline with Tween-80) 100 % of control; (dose: 3.0 mg/kg/injection, schedule: Q01DX009 (ip), vehicle: saline with Tween-80) 100 % of control; (dose: 6.0 mg/kg/injection, schedule: Q01DX009 (ip), vehicle: saline with Tween-80) 95 % of control.
Take `O=C(Nc1ccccc1)Nn1cnc2ccccc2c1=O`: the T/C is 90 % of control under setting [1]; 100 % of control (dose: 200.0 mg/kg/injection, schedule: Q04DX003 (ip), vehicle: saline with Tween-80); 100 % of control (dose: 400.0 mg/kg/injection, schedule: Q04DX003 (ip), vehicle: saline with Tween-80).
On to `[Cl][Co][Cl].[NH-]CCN1CC1`, for which the T/C reads like this: (dose: 25.0 mg/kg/injection, schedule: Q04DX003 (ip), vehicle: saline) 103 % of control; (dose: 50.0 mg/kg/injection, schedule: Q04DX003 (ip), vehicle: saline) 107 % of control; under setting [2], 103 % of control.
On to `CSc1nc(N)c2c(C(N)=O)cc(=O)[nH]c2n1`, for which the T/C reads like this: (dose: 100.0 mg/kg/injection, schedule: Q04DX002 (ip), vehicle: saline with Tween-80) 101 % of control; (dose: 200.0 mg/kg/injection, schedule: Q04DX002 (ip), vehicle: saline with Tween-80) 90 % of control.
Take `C#CC[N+](CCO)(CCO)CCCCCCCCCCCCCCCCCC`: the T/C (dose: 3.13 mg/kg/injection, schedule: Q01DX009 (ip), vehicle: Klucel (hydroxypropylcellulose) (HPC)) was 110 % of control; the T/C (dose: 6.25 mg/kg/injection, schedule: Q01DX009 (ip), vehicle: Klucel (hydroxypropylcellulose) (HPC)) was 109 % of control; the T/C (dose: 12.5 mg/kg/injection, schedule: Q01DX009 (ip), vehicle: Klucel (hydroxypropylcellulose) (HPC)) is 113 % of control and 120 % of control.
For `CCOC(=O)N1CCN(CCCCCOc2ccc(CC(C)(C)C)cc2Cl)CC1`, the T/C was 121 % of control under setting [3] and 118 % of control under setting [4].
Take `Cc1ccccc1C(c1ccccc1C)c1ccccc1C(=O)O`: the T/C is 113 % of control under setting [5]; 100 % of control (dose: 100.0 mg/kg/injection, schedule: Q01DX009 (ip), vehicle: saline); 91 % of control under setting [2]; 109 % of control under setting [6]; 104 % of control (dose: 200.0 mg/kg/injection, schedule: Q01DX009 (ip), vehicle: saline); 100 % of control (dose: 200.0 mg/kg/injection, schedule: Q04DX003 (ip), vehicle: saline). Further, the T/C by setting is: under setting [7], 109 % of control; (dose: 400.0 mg/kg/injection, schedule: Q01DX009 (ip), vehicle: saline) 95 % of control; (dose: 400.0 mg/kg/injection, schedule: Q04DX003 (ip), vehicle: saline) 100 % of control.
`Cc1noc(-c2ccc([N+](=O)[O-])o2)n1`: the T/C is 93 % of control (dose: 50.0 mg/kg/injection, schedule: Q01DX009 (ip), vehicle: Klucel (hydroxypropylcellulose) (HPC)) and 101 % of control under setting [8].
In the case of `Cc1cccc(C(=O)/C=C/c2ccc(OCc3ccccc3)cc2)c1`, the T/C under setting [3] was 91 % of control; the T/C under setting [4] was 91 % of control; the T/C (dose: 200.0 mg/kg/injection, schedule: Q01DX009 (ip), vehicle: saline with Tween-80) is 89 % of control.
For the compound `O=C(c1ccccc1)C1Cc2ccccc2C1=O` (configuration not stated), the T/C was 100 % of control under setting [5]; 113 % of control under setting [8]; 100 % of control under setting [9]; 100 % of control under setting [6]; 109 % of control (dose: 200.0 mg/kg/injection, schedule: Q01DX009 (ip), vehicle: Klucel (hydroxypropylcellulose) (HPC)); 100 % of control (dose: 200.0 mg/kg/injection, schedule: Q04DX003 (ip), vehicle: Klucel (hydroxypropylcellulose) (HPC)). The T/C reads like this: under setting [7], 95 % of control; (dose: 400.0 mg/kg/injection, schedule: Q01DX009 (ip), vehicle: Klucel (hydroxypropylcellulose) (HPC)) 118 % of control; (dose: 400.0 mg/kg/injection, schedule: Q04DX003 (ip), vehicle: Klucel (hydroxypropylcellulose) (HPC)) 90 % of control.
On to `CC(=O)c1cccc(OCc2ccccc2)c1`, for which the T/C was 118 % of control (dose: 100.0 mg/kg/injection, schedule: Q01DX009 (ip), vehicle: other); 100 % of control (dose: 100.0 mg/kg/injection, schedule: Q04DX003 (ip), vehicle: other); 95 % of control (dose: 200.0 mg/kg/injection, schedule: Q01DX009 (ip), vehicle: other); 95 % of control (dose: 200.0 mg/kg/injection, schedule: Q04DX003 (ip), vehicle: other); 109 % of control (dose: 400.0 mg/kg/injection, schedule: Q01DX009 (ip), vehicle: other); 116 % of control (dose: 400.0 mg/kg/injection, schedule: Q04DX003 (ip), vehicle: other).
On to `O=C(CC(=O)NN=C1CCCCCC1)NN=C1CCCCCC1`, for which the T/C was 98 % of control (dose: 37.5 mg/kg/injection, schedule: Q01DX009 (ip), vehicle: saline with Tween-80); 105 % of control (dose: 75.0 mg/kg/injection, schedule: Q01DX009 (ip), vehicle: saline with Tween-80); 99 % of control (dose: 150.0 mg/kg/injection, schedule: Q01DX009 (ip), vehicle: saline with Tween-80).
As for `N=C(N)SCc1c2ccccc2c(CSC(=N)N)c2ccccc12`, the T/C (dose: 2.5 mg/kg/injection, schedule: Q01DX010 (ip), vehicle: saline) was 183 % of control; the T/C (dose: 5.0 mg/kg/injection, schedule: Q01DX010 (ip), vehicle: saline) is 220 % of control; the T/C (dose: 10.0 mg/kg/injection, schedule: Q01DX010 (ip), vehicle: saline) was 235 % of control and 195 % of control; the T/C (dose: 20.0 mg/kg/injection, schedule: Q01DX010 (ip), vehicle: saline) is 208 % of control and 215 % of control.
With `CCOc1ccc(C(/C(Cl)=N/O)C(Cl)(Cl)Cl)cc1` (configuration not stated), the T/C is, setting by setting: (dose: 5.5 mg/kg/injection, schedule: Q01DX009 (ip), vehicle: Klucel (hydroxypropylcellulose) (HPC)) 109 % of control; (dose: 6.25 mg/kg/injection, schedule: Q04DX003 (ip), vehicle: Klucel (hydroxypropylcellulose) (HPC)) 100 % of control; (dose: 8.2 mg/kg/injection, schedule: Q01DX009 (ip), vehicle: Klucel (hydroxypropylcellulose) (HPC)) 100 % of control; (dose: 12.5 mg/kg/injection, schedule: Q04DX003 (ip), vehicle: Klucel (hydroxypropylcellulose) (HPC)) 95 % of control; (dose: 25.0 mg/kg/injection, schedule: Q04DX003 (ip), vehicle: Klucel (hydroxypropylcellulose) (HPC)) 100 % of control; (dose: 35.0 mg/kg/injection, schedule: Q04DX003 (ip), vehicle: Klucel (hydroxypropylcellulose) (HPC)) 120 % of control. Besides, the T/C is, setting by setting: (dose: 55.0 mg/kg/injection, schedule: Q04DX003 (ip), vehicle: Klucel (hydroxypropylcellulose) (HPC)) 110 % of control; (dose: 80.0 mg/kg/injection, schedule: Q04DX003 (ip), vehicle: Klucel (hydroxypropylcellulose) (HPC)) 110 % of control; (dose: 120.0 mg/kg/injection, schedule: Q04DX003 (ip), vehicle: Klucel (hydroxypropylcellulose) (HPC)) 100 % of control.
Regarding `CCCCCCCCS.[Ni]`, the T/C runs as follows: under setting [5], 100 % of control; under setting [9], 113 % of control; under setting [6], 100 % of control.
Turning to `CCCCNCCC(SS)c1ccc(Cl)cc1` (configuration not stated), the T/C is 104 % of control (dose: 50.0 mg/kg/injection, schedule: Q04DX003 (ip), vehicle: saline with Tween-80) and 100 % of control under setting [1].
